Five compounds from US4061861A, “7-[α-(2,3-DIHYDRO-2-OXO-1H-benzimidazol-1-ylcarbonyl-amino) arylacetamido]cephalosporins” (Eli Lilly and Company, priority 1976, dated 1977) can be followed below.

≈ marks a conversion by molar mass, not a printed value.

Common to all, as to format: cell-based
One assay has as its system X400. The assay is described as follows: MIC by gradient plate in vitro method, X400 (methicillin resistant Staphylococcus). Conditions: read-out: Minimum Inhibitory Concentration. From the text: (§1) The antibiotic activity of the cephalosporin compounds of this invention is illustrated by the data provided in the following Table of representative compounds. The values in the Table are the minimum inhibitory concentrations (MIC) for the test compounds against the indicated microorganisms. The MIC values were obtained using the gradient plate in vitro method for determining antibiotic activity.
(§2) Staphylococcus. X-400 is a methicillin resistant Staphylococcus.

A further assay relates to Pseudomonas aeruginosa. Briefly: MIC by gradient plate in vitro method, Pseudomonas aeruginosa. The conditions noted are these: read-out: Minimum Inhibitory Concentration.
Source text: as §1

The test system of another assay is V32. Briefly: MIC by gradient plate in vitro method, V32 (penicillin resistant Staphylococcus). The conditions noted are these: read-out: Minimum Inhibitory Concentration.
Source text: as §1
(§3) ^1 Test organisms V41, V32, and V84 are penicillin resistant
as §2

For another assay, the system named is V84. Briefly: MIC by gradient plate in vitro method, V84 (penicillin resistant Staphylococcus). The conditions noted are these: read-out: Minimum Inhibitory Concentration.
Source text: as §1, §3, §2

A further assay has as its system Serratia marcescens. Briefly: MIC by gradient plate in vitro method, Serratia marcescens. The conditions noted are these: read-out: Minimum Inhibitory Concentration.
Source text: as §1

The subject of the next assay is Escherichia coli. The assay is described as follows: MIC by gradient plate in vitro method, Escherichia coli. Conditions: read-out: Minimum Inhibitory Concentration.
Source text: as §1

In a further assay the test system is Salmonella heidelberg. Briefly: MIC by gradient plate in vitro method, Salmonella heidelberg. Conditions: Salmonella enterica, read-out: Minimum Inhibitory Concentration.
Source text: as §1

Another assay has as its system Aerobacter aerogenes. Briefly: MIC by gradient plate in vitro method, Aerobacter aerogenes. Conditions: Klebsiella aerogenes, read-out: Minimum Inhibitory Concentration.
Source text: as §1

The test system of the next assay is Klebsiella pneumoniae. The assay is described as follows: MIC by gradient plate in vitro method, Klebsiella pneumoniae. Conditions: read-out: Minimum Inhibitory Concentration.
Source text: as §1

The test system of a further assay is Shigella sp. The assay is described as follows: MIC by gradient plate in vitro method, Shigella sp. Conditions: read-out: Minimum Inhibitory Concentration.
Source text: as §1

The next assay concerns V41. Briefly: MIC by gradient plate in vitro method, V41 (penicillin resistant Staphylococcus). The conditions noted are these: read-out: Minimum Inhibitory Concentration.
Source text: as §1, §3, §2

As for `Cn1nnnc1SCC1=C(C(=O)O)N2C(=O)C(NC(=O)C(NC(=O)n3c(=O)n(C)c4ccccc43)c3ccccc3)[C@H]2SC1` (stereo partly drawn) [Test Compound D, 7-[α-(3-Methyl-2,3-dihydro-2-oxo-1H-benzimidazol-1-ylcarbonylamino)phenylacetamido]-3-(1-methyltetrazol-5-ylthiomethyl)-3-cephem-4-carboxylic acid], the MIC was 16 µg/mL (≈ 25.2 µM) with X400; 8 µg/mL (≈ 12.6 µM) in the assay with Pseudomonas aeruginosa; 3 µg/mL (≈ 4.72 µM) in the assay on V32; 0.6 µg/mL (≈ 0.944 µM) in the assay with V84; above 200 µg/mL in the assay with Serratia marcescens; 14 µg/mL (≈ 22 µM) with Escherichia coli. The MIC in the assay on Salmonella heidelberg was 18 µg/mL (≈ 28.3 µM); in the assay with Aerobacter aerogenes, 30 µg/mL (≈ 47.2 µM); in the assay with Klebsiella pneumoniae, 19 µg/mL (≈ 29.9 µM); in the assay on Shigella sp. it was 15 µg/mL (≈ 23.6 µM); in the assay on V41, 3 µg/mL (≈ 4.72 µM).

Consider `CC(=O)OCC1=C(C(=O)O)N2C(=O)C(NC(=O)C(NC(=O)n3c(=O)[nH]c4ccccc43)c3ccccc3)[C@H]2SC1` (stereo partly drawn) [Test Compound A, 7-[α-(2,3-Dihydro-2-oxo-1H-benzimidazol-1-ylcarbonylamino)phenylacetamido]-3-acetoxymethyl-3-cephem-4-carboxylic acid], for which the MIC was above 20 µg/mL in the assay with X400; 16 µg/mL (≈ 28.3 µM) with Pseudomonas aeruginosa; 11 µg/mL (≈ 19.4 µM) in the assay on V32; 8 µg/mL (≈ 14.1 µM) in the assay with V84; above 200 µg/mL in the assay on Serratia marcescens; 140 µg/mL (≈ 248 µM) with Escherichia coli. Besides, the MIC in the assay with Salmonella heidelberg stood at 120 µg/mL (≈ 212 µM); in the assay on Aerobacter aerogenes it was 140 µg/mL (≈ 248 µM); with Klebsiella pneumoniae it was 90 µg/mL (≈ 159 µM); with Shigella sp. it was 100 µg/mL (≈ 177 µM); in the assay on V41 it was 8 µg/mL (≈ 14.1 µM).

In the case of `Cn1nnnc1SCC1=C(C(=O)O)N2C(=O)C(NC(=O)C(NC(=O)n3c(=O)[nH]c4ccccc43)c3ccccc3)[C@H]2SC1` (stereo partly drawn) [Test Compound B, 7-[α-(2,3-Dihydro-2-oxo-1H-benzimidazol-1-ylcarbonylamino)phenylacetamido]-3-(1-methyltetrazol-5-ylthiomethyl)-3-cephem-4-carboxylic acid], the MIC with X400 is above 20 µg/mL; in the assay with Pseudomonas aeruginosa, 12 µg/mL (≈ 19.3 µM); in the assay with V32, 6 µg/mL (≈ 9.65 µM); in the assay with V84 it was 0.9 µg/mL (≈ 1.45 µM); with Serratia marcescens, 120 µg/mL (≈ 193 µM); in the assay with Escherichia coli, 9 µg/mL (≈ 14.5 µM). The MIC was determined as 15 µg/mL (≈ 24.1 µM) in the assay on Salmonella heidelberg; 21.8 µg/mL (≈ 35.1 µM) with Aerobacter aerogenes; 7 µg/mL (≈ 11.3 µM) in the assay on Klebsiella pneumoniae; 16 µg/mL (≈ 25.7 µM) in the assay with Shigella sp.; 1 µg/mL (≈ 1.61 µM) in the assay on V41.

Take `CC(=O)OCC1=C(C(=O)O)N2C(=O)C(NC(=O)C(NC(=O)n3c(=O)n(C)c4ccccc43)c3ccccc3)[C@H]2SC1` (stereo partly drawn) [Test Compound C, 7-[α-(3-Methyl-2,3-dihydro-2-oxo-1H-benzimidazol-1-ylcarbonylamino)phenylacetamido]-3-acetoxymethyl-3-cephem-4-carboxylic acid]: the MIC is above 20 µg/mL in the assay on X400; 8.5 µg/mL (≈ 14.7 µM) in the assay with Pseudomonas aeruginosa; 6 µg/mL (≈ 10.4 µM) in the assay on V32; 0.9 µg/mL (≈ 1.55 µM) in the assay with V84; above 200 µg/mL in the assay on Serratia marcescens; 72.5 µg/mL (≈ 125 µM) with Escherichia coli. Moreover, the MIC turned out to be 80 µg/mL (≈ 138 µM) in the assay on Salmonella heidelberg; 120 µg/mL (≈ 207 µM) in the assay on Aerobacter aerogenes; 25 µg/mL (≈ 43.1 µM) with Klebsiella pneumoniae; 55 µg/mL (≈ 94.9 µM) in the assay with Shigella sp.; 5 µg/mL (≈ 8.63 µM) with V41.

For `NC(=O)OCC1=C(C(=O)O)N2C(=O)C(NC(=O)C(NC(=O)n3c(=O)[nH]c4ccccc43)c3ccc(O)cc3)[C@H]2SC1` (stereo partly drawn) [Test Compound E, 7-[α-(2,3-dihydro-2-oxo-1H-benzimidazol-1-ylcarbonylamino)-4-hydroxyphenylacetamido]-3-carbamoyloxymethyl-3-cephem-4-carboxylic acid], the MIC is 180 µg/mL (≈ 309 µM) in the assay on X400; 10 µg/mL (≈ 17.2 µM) in the assay on Pseudomonas aeruginosa; 5 µg/mL (≈ 8.58 µM) in the assay with V32; 0.7 µg/mL (≈ 1.2 µM) in the assay with V84; above 200 µg/mL in the assay with Serratia marcescens; 160 µg/mL (≈ 275 µM) with Escherichia coli. Moreover, the MIC is 120 µg/mL (≈ 206 µM) in the assay with Salmonella heidelberg; above 200 µg/mL with Aerobacter aerogenes; 100 µg/mL (≈ 172 µM) in the assay on Klebsiella pneumoniae; 120 µg/mL (≈ 206 µM) with Shigella sp.; 5 µg/mL (≈ 8.58 µM) with V41.
